System: MCF-10A
Assay: normalised response (% of control), CellTox Green; higher = less cell death (100 = DMSO, 0 = benzethonium chloride kill control)
Settings: incubation time: 72 h
Procedure, shortened: (§1)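 A 20 µl suspension of breast cancer cells was seeded into each well of 384-well plates containing compound at 5 concentrations in 10-fold steps over a compound-specific 10,000-fold range. After 72 h incubation, CellTox Green fluorescence (485/520 nm) was read first, and CellTiter-Glo luminescence was read after 10 min at room temperature. Each plate was normalised against 0.1 % DMSO (100) and a positive kill control (0), and each value is the normalised signal at one concentration.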

SMILES	normalised response [%]
CNC(=O)c1cc(Oc2ccc(NC(=O)Nc3ccc(Cl)c(C(F)(F)F)c3)c(F)c2)ccn1 [Regorafenib] (100 nM)	98.1
c1ccc2c(CCNc3ccc(Nc4ccncc4)cc3)c[nH]c2c1 [Serdemetan] (100 nM)	88
CC(C)C[C@@H](C(=O)N[C@H](C(=O)OC1CCCC1)c1ccccc1)[C@H](O)C(=O)NO [Tosedostat] (100 nM)	76
COc1cc2c(NC3CCN(C(C)C)CC3)nc(N3CCC(F)(F)CC3)nc2cc1OCCCN1CCCC1 [UNC0642] (100 nM)	99.4
COCC[n+]1c2c(n(Cc3cnccn3)c1C)C(=O)c1ccccc1C2=O [YM155] (100 nM)	-8.31

System: CAL-120
Assay: as above
Settings: incubation time: 72 h
Procedure, shortened: as §1

SMILES	normalised response [%]
CNC(=O)c1ccc(N2C(=S)N(c3ccc(C#N)c(C(F)(F)F)c3)C(=O)C23CCC3)cc1F [RD162] (100 nM)	104
CNC(=O)c1cc(Oc2ccc(NC(=O)Nc3ccc(Cl)c(C(F)(F)F)c3)c(F)c2)ccn1 [Regorafenib] (100 nM)	99.8
c1ccc2c(CCNc3ccc(Nc4ccncc4)cc3)c[nH]c2c1 [Serdemetan] (100 nM)	96.9
CC(C)C[C@@H](C(=O)N[C@H](C(=O)OC1CCCC1)c1ccccc1)[C@H](O)C(=O)NO [Tosedostat] (100 nM)	78.6
COc1cc2c(NC3CCN(C(C)C)CC3)nc(N3CCC(F)(F)CC3)nc2cc1OCCCN1CCCC1 [UNC0642] (100 nM)	101
COCC[n+]1c2c(n(Cc3cnccn3)c1C)C(=O)c1ccccc1C2=O [YM155] (100 nM)	-16.3

System: HDQ-P1
Assay: as above
Settings: incubation time: 72 h
Procedure, shortened: as §1

SMILES	normalised response [%]
CNC(=O)c1ccc(N2C(=S)N(c3ccc(C#N)c(C(F)(F)F)c3)C(=O)C23CCC3)cc1F [RD162] (100 nM)	96.8
CNC(=O)c1cc(Oc2ccc(NC(=O)Nc3ccc(Cl)c(C(F)(F)F)c3)c(F)c2)ccn1 [Regorafenib] (100 nM)	101
c1ccc2c(CCNc3ccc(Nc4ccncc4)cc3)c[nH]c2c1 [Serdemetan] (100 nM)	51.9
CC(C)C[C@@H](C(=O)N[C@H](C(=O)OC1CCCC1)c1ccccc1)[C@H](O)C(=O)NO [Tosedostat] (100 nM)	76.4
COc1cc2c(NC3CCN(C(C)C)CC3)nc(N3CCC(F)(F)CC3)nc2cc1OCCCN1CCCC1 [UNC0642] (100 nM)	80.7
COCC[n+]1c2c(n(Cc3cnccn3)c1C)C(=O)c1ccccc1C2=O [YM155] (100 nM)	-5.41

System: BT-474
Assay: as above
Settings: incubation time: 72 h
Procedure, shortened: as §1

SMILES	normalised response [%]
CNC(=O)c1ccc(N2C(=S)N(c3ccc(C#N)c(C(F)(F)F)c3)C(=O)C23CCC3)cc1F [RD162] (100 nM)	104
CNC(=O)c1cc(Oc2ccc(NC(=O)Nc3ccc(Cl)c(C(F)(F)F)c3)c(F)c2)ccn1 [Regorafenib] (100 nM)	98.9
c1ccc2c(CCNc3ccc(Nc4ccncc4)cc3)c[nH]c2c1 [Serdemetan] (100 nM)	100
CC(C)C[C@@H](C(=O)N[C@H](C(=O)OC1CCCC1)c1ccccc1)[C@H](O)C(=O)NO [Tosedostat] (100 nM)	102
COc1cc2c(NC3CCN(C(C)C)CC3)nc(N3CCC(F)(F)CC3)nc2cc1OCCCN1CCCC1 [UNC0642] (100 nM)	100
COCC[n+]1c2c(n(Cc3cnccn3)c1C)C(=O)c1ccccc1C2=O [YM155] (100 nM)	-29.1

System: HCC1599
Assay: as above
Settings: incubation time: 72 h
Procedure, shortened: as §1

SMILES	normalised response [%]
CNC(=O)c1ccc(N2C(=S)N(c3ccc(C#N)c(C(F)(F)F)c3)C(=O)C23CCC3)cc1F [RD162] (100 nM)	102
CNC(=O)c1cc(Oc2ccc(NC(=O)Nc3ccc(Cl)c(C(F)(F)F)c3)c(F)c2)ccn1 [Regorafenib] (100 nM)	108
c1ccc2c(CCNc3ccc(Nc4ccncc4)cc3)c[nH]c2c1 [Serdemetan] (100 nM)	93.7
CC(C)C[C@@H](C(=O)N[C@H](C(=O)OC1CCCC1)c1ccccc1)[C@H](O)C(=O)NO [Tosedostat] (100 nM)	104
COc1cc2c(NC3CCN(C(C)C)CC3)nc(N3CCC(F)(F)CC3)nc2cc1OCCCN1CCCC1 [UNC0642] (100 nM)	99.2
COCC[n+]1c2c(n(Cc3cnccn3)c1C)C(=O)c1ccccc1C2=O [YM155] (100 nM)	71.7

System: HCC1937
Assay: as above
Settings: incubation time: 72 h
Procedure, shortened: as §1

SMILES	normalised response [%]
CNC(=O)c1ccc(N2C(=S)N(c3ccc(C#N)c(C(F)(F)F)c3)C(=O)C23CCC3)cc1F [RD162] (100 nM)	107
CNC(=O)c1cc(Oc2ccc(NC(=O)Nc3ccc(Cl)c(C(F)(F)F)c3)c(F)c2)ccn1 [Regorafenib] (100 nM)	99.6
c1ccc2c(CCNc3ccc(Nc4ccncc4)cc3)c[nH]c2c1 [Serdemetan] (100 nM)	98.8
CC(C)C[C@@H](C(=O)N[C@H](C(=O)OC1CCCC1)c1ccccc1)[C@H](O)C(=O)NO [Tosedostat] (100 nM)	91
COc1cc2c(NC3CCN(C(C)C)CC3)nc(N3CCC(F)(F)CC3)nc2cc1OCCCN1CCCC1 [UNC0642] (100 nM)	72.7
COCC[n+]1c2c(n(Cc3cnccn3)c1C)C(=O)c1ccccc1C2=O [YM155] (100 nM)	22.8

System: MDA-MB-436
Assay: as above
Settings: incubation time: 72 h
Procedure, shortened: as §1

SMILES	normalised response [%]
CNC(=O)c1ccc(N2C(=S)N(c3ccc(C#N)c(C(F)(F)F)c3)C(=O)C23CCC3)cc1F [RD162] (100 nM)	83.4
CNC(=O)c1cc(Oc2ccc(NC(=O)Nc3ccc(Cl)c(C(F)(F)F)c3)c(F)c2)ccn1 [Regorafenib] (100 nM)	90.9
c1ccc2c(CCNc3ccc(Nc4ccncc4)cc3)c[nH]c2c1 [Serdemetan] (100 nM)	88.8
CC(C)C[C@@H](C(=O)N[C@H](C(=O)OC1CCCC1)c1ccccc1)[C@H](O)C(=O)NO [Tosedostat] (100 nM)	68.7
COc1cc2c(NC3CCN(C(C)C)CC3)nc(N3CCC(F)(F)CC3)nc2cc1OCCCN1CCCC1 [UNC0642] (100 nM)	63.9
COCC[n+]1c2c(n(Cc3cnccn3)c1C)C(=O)c1ccccc1C2=O [YM155] (100 nM)	19.2

System: MDA-MB-231
Assay: as above
Settings: incubation time: 72 h
Procedure, shortened: as §1

SMILES	normalised response [%]
CNC(=O)c1ccc(N2C(=S)N(c3ccc(C#N)c(C(F)(F)F)c3)C(=O)C23CCC3)cc1F [RD162] (100 nM)	113
CNC(=O)c1cc(Oc2ccc(NC(=O)Nc3ccc(Cl)c(C(F)(F)F)c3)c(F)c2)ccn1 [Regorafenib] (100 nM)	74.6
c1ccc2c(CCNc3ccc(Nc4ccncc4)cc3)c[nH]c2c1 [Serdemetan] (100 nM)	93.5
CC(C)C[C@@H](C(=O)N[C@H](C(=O)OC1CCCC1)c1ccccc1)[C@H](O)C(=O)NO [Tosedostat] (100 nM)	30.6
COc1cc2c(NC3CCN(C(C)C)CC3)nc(N3CCC(F)(F)CC3)nc2cc1OCCCN1CCCC1 [UNC0642] (100 nM)	107
COCC[n+]1c2c(n(Cc3cnccn3)c1C)C(=O)c1ccccc1C2=O [YM155] (100 nM)	0.07

System: CAL-148
Assay: as above
Settings: incubation time: 72 h
Procedure, shortened: as §1

SMILES	normalised response [%]
CNC(=O)c1ccc(N2C(=S)N(c3ccc(C#N)c(C(F)(F)F)c3)C(=O)C23CCC3)cc1F [RD162] (100 nM)	87
CNC(=O)c1cc(Oc2ccc(NC(=O)Nc3ccc(Cl)c(C(F)(F)F)c3)c(F)c2)ccn1 [Regorafenib] (100 nM)	101
c1ccc2c(CCNc3ccc(Nc4ccncc4)cc3)c[nH]c2c1 [Serdemetan] (100 nM)	96.1
CC(C)C[C@@H](C(=O)N[C@H](C(=O)OC1CCCC1)c1ccccc1)[C@H](O)C(=O)NO [Tosedostat] (100 nM)	81.6
COc1cc2c(NC3CCN(C(C)C)CC3)nc(N3CCC(F)(F)CC3)nc2cc1OCCCN1CCCC1 [UNC0642] (100 nM)	89.8
COCC[n+]1c2c(n(Cc3cnccn3)c1C)C(=O)c1ccccc1C2=O [YM155] (100 nM)	18.9

System: MFM-223
Assay: normalised response (% of control), CellTiter-Glo; higher = more viable cells (100 = DMSO, 0 = benzethonium chloride kill control)
Settings: incubation time: 72 h
Procedure, shortened: as §1

SMILES	normalised response [%]
CNC(=O)c1ccc(N2C(=S)N(c3ccc(C#N)c(C(F)(F)F)c3)C(=O)C23CCC3)cc1F [RD162] (100 nM)	103
CNC(=O)c1cc(Oc2ccc(NC(=O)Nc3ccc(Cl)c(C(F)(F)F)c3)c(F)c2)ccn1 [Regorafenib] (100 nM)	102
c1ccc2c(CCNc3ccc(Nc4ccncc4)cc3)c[nH]c2c1 [Serdemetan] (100 nM)	99.9

From the supplement of paper PMC4862054
